Assay results taken from patent publication US8536332B2, “Modulating signal transduction pathways with substituted pyridol [2,3-b] pyrazines” (Aeterna Zentaris GmbH, priority 2007, dated 2013).

| Structure (SMILES) | melting point |
| --- | --- |
| CCNC(=O)Nc1cnc2ccc(Nc3ccc(OC)c(Cl)c3)nc2n1 [Compound 201, 1-[6-(3-Chloro-4-methoxy-phenylamino)-pyrido[2,3-b]pyrazin-3-yl]-3-ethyl-urea] | 260 °C |
| CCNC(=O)Nc1ccc2ncc(-c3ccccc3Cl)nc2n1 [Compound 104, 1-[3-(2-Chloro-phenyl)-pyrido[2,3-b]pyrazin-6-yl]-3-ethyl-urea] | 310 °C |
| COc1cc(-c2ccc3ncc(NC(=O)Nc4ccc(N5CCN(C)CC5)cc4)nc3n2)ccc1O [Compound 620, 1-[6-(4-Hydroxy-3-methoxy-phenyl)-pyrido[2,3-b]pyrazin-3-yl]-3-[4-(4-methyl-piperazin-1-yl)-phenyl]-urea] | 207 to 210 °C |
| CCNC(=O)Nc1cnc2ccc(Nc3ccccc3)nc2n1 [Compound 13, 1-Ethyl-3-(6-phenylamino-pyrido[2,3-b]pyrazin-3-yl)-urea] | 202 °C |
| CCNC(=O)Nc1ccc2ncc(Nc3ccc4c(c3)OC(F)(F)O4)nc2n1 [Compound 42, 1-[3-(2,2-Difluoro-benzo[1,3]dioxol-5-ylamino)-pyrido[2,3-b]pyrazin-6-yl]-3-ethyl-urea] | 238 to 241 °C |
| CCCCOc1c(C)cc(-c2ccc3ncc(NC(=O)NCC)nc3n2)cc1C [Compound 599, 1-[6-(4-Butoxy-3,5-dimethyl-phenyl)-pyrido[2,3-b]pyrazin-3-yl]-3-ethyl-urea] | 233 °C |
| CCNC(=O)Nc1ccc2ncc(-c3cccc(C)c3C)nc2n1 [Compound 107, 1-[3-(2,3-Dimethyl-phenyl)-pyrido[2,3-b]pyrazin-6-yl]-3-ethyl-urea] | 260 °C |
| CCNC(=S)Nc1cnc2ccc(Nc3ccccc3O)nc2n1 [Compound 197, 1-Ethyl-3-[6-(2-hydroxy-phenylamino)-pyrido[2,3-b]pyrazin-3-yl]-thiourea] | 211 °C |
| CCNC(=S)Nc1ccc2ncc(Nc3cc(Cl)c(O)c(Cl)c3)nc2n1 [Compound 166, 1-[3-(3,5-Dichloro-4-hydroxy-phenylamino)-pyrido[2,3-b]pyrazin-6-yl]-3-ethyl-thiourea] | 278 °C |
| CCNC(=O)Nc1ccc2ncc(Nc3ccc(C(=O)OC)c(OC)c3)nc2n1 [Compound 87, 4-[6-(3-Ethyl-ureido)-pyrido[2,3-b]pyrazin-3-ylamino]-2-methoxy-benzoic acid methyl ester] | 256 to 259 °C |
| CCNC(=O)Nc1ccc2ncc(-c3cccc(OCC)c3)nc2n1 [Compound 130, 1-[3-(3-Ethoxy-phenyl)-pyrido[2,3-b]pyrazin-6-yl]-3-ethyl-urea] | 220 to 223 °C |
| COc1ccc(-c2ccc3ncc(NC(=O)Nc4ccc(N5C(=O)C=CC5=O)cc4)nc3n2)cc1OC [Compound 579, 1-[6-(3,4-Dimethoxy-phenyl)-pyrido[2,3-b]pyrazin-3-yl]-3-[4-(2,5-dioxo-2,5-dihydro-pyrrol-1-yl)-phenyl]-urea] | 279 to 283 °C |
| CCNC(=S)Nc1ccc2ncc(Nc3cccc(OC(C)C)c3)nc2n1 [Compound 163, 1-Ethyl-3-[3-(3-isopropoxy-phenylamino)-pyrido[2,3-b]pyrazin-6-yl]-thiourea] | 238 °C |
| CCNC(=O)Nc1ccc2ncc(-c3ccc(OP(=O)([O-])[O-])c(OC)c3)nc2n1.[Na+].[Na+] | > 350 °C |
| CCNC(=O)Nc1ccc2ncc(-c3ccc(N)c([N+](=O)[O-])c3)nc2n1 [Compound 78, 1-[3-(4-Amino-3-nitro-phenyl)-pyrido[2,3-b]pyrazin-6-yl]-3-ethyl-urea] | > 350 °C |
| COc1ccc(-c2ccc3ncc(NC(=O)Nc4ccc(C)cc4)nc3n2)cc1OC [Compound 578, 1-[6-(3,4-Dimethoxy-phenyl)-pyrido[2,3-b]pyrazin-3-yl]-3-p-tolyl-urea] | 263 to 266 °C |
| CC(=O)Nc1ccc2ncc(Nc3cccc(OC(C)C)c3)nc2n1 [Compound 36, N-[3-(3-Isopropoxy-phenylamino)-pyrido[2,3-b]pyrazin-6-yl]-acetamide] | 177 °C |
| COc1ccc(-c2ccc3ncc(NC(=O)Nc4ccc(N(C)C)cc4)nc3n2)cc1OC [Compound 569, 1-[6-(3,4-Dimethoxy-phenyl)-pyrido[2,3-b]pyrazin-3-yl]-3-(4-dimethylamino-phenyl)-urea] | 262 to 263 °C |
| CCNC(=O)Nc1ccc2ncc(-c3ccc(C(=O)OC)c(F)c3)nc2n1 [Compound 143, 4-[6-(3-Ethyl-ureido)-pyrido[2,3-b]pyrazin-3-yl]-2-fluoro-benzoic acid methyl ester] | 250 to 252 °C |
| CCNC(=O)Nc1cnc2ccc(-c3ccc(OC(F)(F)F)c(F)c3)nc2n1 [Compound 640, 1-Ethyl-3-[6-(3-fluoro-4-trifluoromethoxy-phenyl)-pyrido[2,3-b]pyrazin-3-yl]-urea] | 262 °C |
| CCNC(=O)Nc1ccc2ncc(-c3cccc(Cl)c3Cl)nc2n1 [Compound 108, 1-[3-(2,3-Dichloro-phenyl)-pyrido[2,3-b]pyrazin-6-yl]-3-ethyl-urea] | > 350 °C |

Second part, the molecule after the results:

| melting point | Structure (SMILES) |
| --- | --- |
| 275 °C | CCNC(=O)Nc1ccc2ncc(-c3cccc(Cl)c3F)nc2n1 [Compound 99, 1-[3-(3-Chloro-2-fluoro-phenyl)-pyrido[2,3-b]pyrazin-6-yl]-3-ethyl-urea] |
| 225 to 227 °C | CCNC(=O)Nc1ccc2ncc(-c3ccc(OCCCN4CCOCC4)c(OC)c3)nc2n1 [Compound 63, 1-Ethyl-3-{3-[3-methoxy-4-(3-morpholin-4-yl-propoxy)-phenyl]-pyrido[2,3-b]pyrazin-6-yl}-urea] |
| > 350 °C | CCNC(=O)Nc1ccc2ncc(-c3ccc([N+](=O)[O-])cc3)nc2n1 [Compound 131, 1-Ethyl-3-[3-(4-nitro-phenyl)-pyrido[2,3-b]pyrazin-6-yl]-urea] |
| 261 to 262 °C | C=CCNC(=S)Nc1cnc2ccc(-c3ccc(O)c(OC)c3)nc2n1 [Compound 521, 1-Allyl-3-[6-(4-hydroxy-3-methoxy-phenyl)-pyrido[2,3-b]pyrazin-3-yl]-thiourea] |
| 259 to 261 °C | CC(C)NC(=O)Nc1cnc2ccc(-c3cc(Cl)c(O)c(Cl)c3)nc2n1 [Compound 552, 1-[6-(3,5-Dichloro-4-hydroxy-phenyl)-pyrido[2,3-b]pyrazin-3-yl]-3-isopropyl-urea] |
| 232 °C | CCNC(=S)Nc1ccc2ncc(Nc3ccc(C(C)=O)cc3)nc2n1 [Compound 467, 1-[3-(4-Acetyl-phenylamino)-pyrido[2,3-b]pyrazin-6-yl]-3-ethyl-thiourea] |
| 189 to 191 °C | CCNC(=O)Nc1ccc2ncc(-c3cnn(CC(C)C)c3)nc2n1 [Compound 59, 1-Ethyl-3-[3-(1-isobutyl-1H-pyrazol-4-yl)-pyrido[2,3-b]pyrazin-6-yl]-urea] |
| 272 to 273 °C | COc1cc(-c2ccc3ncc(NC(=O)NC4CCC(C)CC4)nc3n2)ccc1O (stereo not drawn) [Compound 612, 1-[6-(4-Hydroxy-3-methoxy-phenyl)-pyrido[2,3-b]pyrazin-3-yl]-3-(4-methyl-cyclohexyl)-urea] |
| > 300 °C | CCNC(=O)Nc1ccc2ncc(-c3ccc(NC(C)=O)c(OC)c3)nc2n1 [Compound 77, N-{4-[6-(3-Ethyl-ureido)-pyrido[2,3-b]pyrazin-3-yl]-2-methoxy-phenyl}-acetamide] |
| 225 °C | CCNC(=O)Nc1ccc2ncc(Nc3cccc(C)c3C)nc2n1 [Compound 378, 1-[3-(2,3-Dimethyl-phenylamino)-pyrido[2,3-b]pyrazin-6-yl]-3-ethyl-urea] |
| 245 to 248 °C | COc1cc(-c2ccc3ncc(NC(=O)Nc4cccnc4)nc3n2)ccc1O [Compound 611, 1-[6-(4-Hydroxy-3-methoxy-phenyl)-pyrido[2,3-b]pyrazin-3-yl]-3-pyridin-3-yl-urea] |
| 324 to 329 °C | CCNC(=O)Nc1ccc2ncc(Nc3ccc(Cl)c(C(=O)O)c3)nc2n1 [Compound 434, 2-Chloro-5-[6-(3-ethyl-ureido)-pyrido[2,3-b]pyrazin-3-ylamino]-benzoic acid] |
| 254 to 257 °C | CCNC(=O)Nc1ccc2ncc(-c3cc(Cl)ccc3OC)nc2n1 [Compound 91, 1-[3-(5-Chloro-2-methoxy-phenyl)-pyrido[2,3-b]pyrazin-6-yl]-3-ethyl-urea] |
| 288 °C | CCNC(=S)Nc1ccc2ncc(Nc3ccc(C)c(OC)c3)nc2n1 [Compound 162, 1-Ethyl-3-[3-(3-methoxy-4-methyl-phenylamino)-pyrido[2,3-b]pyrazin-6-yl]-thiourea] |
| 206 °C | COc1cc(Nc2cnc3ccc(NC(=S)NCCN4CCCCC4)nc3n2)cc(OC)c1OC [Compound 700, 1-(2-Piperidin-1-yl-ethyl)-3-[3-(3,4,5-trimethoxy-phenylamino)-pyrido[2,3-b]pyrazin-6-yl]-thiourea] |
| 249 to 253 °C | CCNC(=O)Nc1ccc2ncc(-c3cccc([N+](=O)[O-])c3)nc2n1 [Compound 101, 1-Ethyl-3-[3-(3-nitro-phenyl)-pyrido[2,3-b]pyrazin-6-yl]-urea] |
| 239 to 242 °C | COc1ccc(-c2ccc3ncc(NC(=O)NC4CCN(C(=O)C(F)(F)F)CC4)nc3n2)cc1OC [Compound 581, 1-[6-(3,4-Dimethoxy-phenyl)-pyrido[2,3-b]pyrazin-3-yl]-3-[1-(2,2,2-trifluoro-acetyl)-piperidin-4-yl]-urea] |
| 239 to 240 °C | CCNC(=O)Nc1ccc2ncc(-c3cccc(OC(F)(F)F)c3)nc2n1 [Compound 118, 1-Ethyl-3-[3-(3-trifluoromethoxy-phenyl)-pyrido[2,3-b]pyrazin-6-yl]-urea] |
| > 300 °C | CCNC(=O)Nc1ccc2ncc(-c3cnc(N)nc3)nc2n1 [Compound 72, 1-[3-(2-Amino-pyrimidin-5-yl)-pyrido[2,3-b]pyrazin-6-yl]-3-ethyl-urea] |
| 230 to 234 °C | C=CCNC(=S)Nc1ccc2ncc(Nc3cc(OC)c(OC)c(OC)c3)nc2n1 [Compound 693, 1-Allyl-3-[3-(3,4,5-trimethoxy-phenylamino)-pyrido[2,3-b]pyrazin-6-yl]-thiourea] |
| 247.8 to 252.4 °C | CCNC(=O)Nc1ccc2ncc(-c3ccc(C)c(F)c3)nc2n1 [Compound 83, 1-Ethyl-3-[3-(3-fluoro-4-methyl-phenyl)-pyrido[2,3-b]pyrazin-6-yl]-urea] |
